Series [1] in a line: Plasma protein binding by equilibrium dialysis, human plasma. The format is in vitro ADME. Conditions: fraction unbound in human plasma. Here is the method: (§1) for 2 seconds (excitation, 480 nm; emission, 530 nm), first add occurred by adding 20 µL of test compound to the cells, and the response was measured for 140 seconds. This is followed by second add; 10 µL (5X) of an EC20 concentration of ACh agonist was added to the cells, and the response of the cells was measured for 125 seconds. Immediately, the third add occurred by adding 12 ul assay buffer or 5X of an EC max concentration of ACh and the response of the cells was measured for 90 seconds. Assay buffer was added to the wells that incubated with compounds followed by EC20 concentration of ACh. […] Calcium fluorescence was recorded as fold over basal fluorescence and raw data were normalized to the maximal response to ACh agonist. Potency (EC50) and maximum response (% ACh Max) for compounds was determined using a four -parameter logist ical equation using GraphPad Prism (La Jolla, CA) or the Dotmatics software platform ( Woburn, MA) : […]
(§2) The protein binding of each compound was determined in plasma via equilibrium dialysis employing rapid equilibrium dialysis (RED) plates (ThermoFisher Scientific, Rochester, NY). […]
(§3) same manner as the plasma samples in the previously described plasma protein binding assay. Fraction unbound for both plasma and brain samples was determined using Equation 4. […]
Background: Equilibrium dialysis compares concentrations on both sides of a semipermeable membrane.

Series [2] in a line: Plasma protein binding by equilibrium dialysis, rat plasma. The format is in vitro ADME. As to conditions: fraction unbound in rat plasma. The procedure: as §1, §2, §3

As for `Cn1cc(-c2ccc(Cc3cc(C(=O)N[C@H]4CCOC[C@@H]4O)nn3C3CCCC3)cc2)cn1` [17g], in series [1], the Human fuplasma is 0.08. In series [2], this compound displayed a Rat fuplasma of 0.08.

`Cn1cc(-c2ccc(Cc3cc(C(=O)N[C@H]4CCCC[C@@H]4O)nn3C3CCCC3)cc2)cn1` [17k] had a Human fuplasma in series [1] of 0.01. The compound also displayed a Rat fuplasma in series [2] of 0.03.

Values taken from publication PMC12257413, “Discovery of a Novel sp^3‑Rich M1 Positive Allosteric Modulators (PAMs) Chemotype via Scaffold Hopping” (ACS Medicinal Chemistry Letters, 2025).
